Data as given in patent US6869968B1, “2-(3H)-oxazolone derivatives and their use as COX-2 inhibitors” (Allmirall Prodesfarma S.A., priority 1996, dated 2005).

Experiments:
[1] = system: glandular stomach; assay: Ulcerogenic activity (gastric lesion index); assay type: in vivo, Male Wistar rat; conditions: oral route, fasted rats, sacrificed 6 hours after dosage
Experimental: Animals: Male Wistar (Interfauna, U.K., Ltd.) weighing about 120-150 g were used. They were maintained on a 12:12 hour light-dark cycle (lights on at 7:00 a.m.) at room temperature (22±1° C.). The animals were fasted for 18 h prior to the experiment with free access to drinking water.
Procedure: Experiments were performed from 9 to 17 h. The compounds were administered by-the oral route and the animals were sacrificed 6 hours after drugs dosage. The stomach of each rat was removed, opened and gently washed. The macroscopic severity of the erosions was assessed using a parametric scale (Cosen and Mazure), evaluating the number and size of the ulcers in the glandular stomach. Thus, each stomach was classified with an index lesion and compared with the gastrolesivity induced by ketorolac 100 mg/kg p.o., used as a positive standard. The treatments were randomized in each experiment.
(§1) For the in vivo assays all drugs were administered in vehicle (0.1% Tween 80+0.5% methylcellulose in distilled water) in a volume of 5 ml/kg.

[2] = target: T1, Cyclooxygenase-1 (COX-1) (Homo sapiens, UniProt P23219); assay: Inhibition of cyclooxygenase-1 (COX-1) activity in human platelets (thromboxane B2 ELISA); assay type: cell-based; conditions: 50 μM arachidonic acid, mean of three independent experiments, read-out: COX-1 (μM), results expressed as IC50 values
T1 construct: Platelets were isolated from peripheral human blood obtained from healthy donors; endogenous in cells; host or cells: human platelets from peripheral blood of healthy donors
Experimental: (§2) For the whole-cell COX-1 and COX-2 assays, stock solutions (10^−3M) of the drugs were dissolved in 50% dimethylsulphoxide, and further dilutions were done with medium.
Inhibition of Cyclooxygenase-1 (COX-1) Activity in Human Platelets
The blood was anticoagulated with 2 mg/ml sodium EDTA and centrifuged at 180 g for 10 min. at room temperature to obtain platelet-rich plasma. The platelet-rich plasma was centrifuged at 2000 g for 20 min. at 4° C. to obtain a platelet pellet. Cells were washed twice with PBS without […] and resuspended to 5×10^7 cells with Hank's balanced salt solution (HBSS). Platelets (10^7) were preincubated with the drugs for 15 min. at 37° C. and incubations were continued for a further 15 min. in the presence of 50 μM arachidonic acid. The production of tromboxane B2 in response to arachidonic acid was measured in the supernatants using a solid-phase immunoassay (ELISA). The results are expressed as the mean of the IC50 values obtained from three independent experiments.
(§3) For the whole-cell COX-1 and COX-2 assays stock solutions (10^−3 M) of the drugs wer dissolved in 50% dimethylsulphoxide, and further dilutions were done with medium.

[3] = target: T2, Cyclooxygenase-2 (COX-2) (Homo sapiens, UniProt P35354); assay: Inhibition of cyclooxygenase-2 (COX-2) activity in HUV-EC-C cell line (prostaglandin E2 ELISA); assay type: cell-based; conditions: for IC50: PMA/TPA-induced HUV-EC-C cells, 50 μM arachidonic acid, mean of three independent experiments, read-out: COX-2 (μM), results expressed as IC50 values; for Ratio COX-1:COX-2: ratio of IC50 COX-1 (platelets) to IC50 COX-2 (HUV-EC-C)
T2 construct: Quiescent HUV-EC-C cells were treated with 50 nM TPA for 6 h at 37° C. to induce the COX-2 isoenzyme; endogenous in cells; host or cells: HUV-EC-C human endothelial cell line, passage 19-27, induced with 50 nM TPA/PMA
T2 sequence (P35354 18-604): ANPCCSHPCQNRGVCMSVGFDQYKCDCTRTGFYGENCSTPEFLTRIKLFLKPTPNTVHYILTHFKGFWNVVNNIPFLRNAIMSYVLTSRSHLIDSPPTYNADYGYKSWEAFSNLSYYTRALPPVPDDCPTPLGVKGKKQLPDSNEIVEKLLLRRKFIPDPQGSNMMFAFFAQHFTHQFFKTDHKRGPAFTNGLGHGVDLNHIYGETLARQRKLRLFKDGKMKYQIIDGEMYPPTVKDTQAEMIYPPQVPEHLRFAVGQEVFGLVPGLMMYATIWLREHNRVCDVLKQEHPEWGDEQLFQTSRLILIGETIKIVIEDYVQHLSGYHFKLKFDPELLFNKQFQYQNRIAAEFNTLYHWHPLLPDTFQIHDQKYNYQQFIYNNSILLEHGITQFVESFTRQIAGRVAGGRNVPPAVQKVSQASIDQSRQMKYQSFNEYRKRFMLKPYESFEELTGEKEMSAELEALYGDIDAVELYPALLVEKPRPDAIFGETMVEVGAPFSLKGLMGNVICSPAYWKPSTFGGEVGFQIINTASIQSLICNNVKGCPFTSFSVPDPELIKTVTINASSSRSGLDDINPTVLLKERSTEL
Experimental: as §2
Inhibition of Cyclooxygenase-2 (COX-2) Activity in HUV-EC-C Cell Line
HUV-EC-C cells were grown on Ham's F12K medium containing 10% fetal bovine serum, 100 μg/ml heparin and 50 μg/ml Endothelial Cell Growth Supplement (ECGS). Experiments were performed with HUV-EC-C passage 19-27. Cells (2×10^4) were seeded onto 96-well plates and made quiescent by removing the growth factor for 48 h before the initiation of the experiments. Quiescent HUV-EC-C cells were treated with 50 nM TPA for 6 h at 37° C. to induce the COX-2 isoenzyme. The cultured medium was then changed and cells were incubated with drugs for 30 min. at 37° C. Arachidonic acid (50 μM) was then added, and the cells were incubated for a further 30 min. The production of prostaglandine E2 in response to arachidonic acid was measured in the supernatants using a solid-phase immunoassay (ELISA). The results are expressed as the mean of the IC50 values obtained from three independent experiments.
as §3

[4] = system: adjuvant arthritis (Mycobacterium tuberculosis in paraffin oil, hind paw); assay: Anti-inflammatory activity (adjuvant arthritis), hind paw volume; assay type: in vivo, Male Wistar rats; conditions: paw volume on day 21
Experimental: Anti-Inflammatory Activity (Adjuvant Arthritis)
Male Wistar rats weighing 175-200 g with free access to food and water were used. On day 0, the animals received an intraplantar injection of a suspension of Mycobacterium tuberculosis in paraffin oil (0.5 mg/rat) on the left hind paw. A group of 8 nonarthritic control rats were injected with paraffin oil alone. On days 11 and 14 after induction of arthritis, the volume of the hind paw of each rat was measured using a water plehysmograph. Animals whose paw volumes increased during that time were selected. Rats were distributed into groups of 8 having equal mean paw volumes and an approximately equal standard deviation.
Test compounds were administered p.o. once daily for 7 days (days 14-20). Nonarthritic and arthritic control rats received vehicle alone for 7 days. The hind paw volumes were measured 20 h after the last dose (on day 21). The body weight was determined every second day.
The results are expressed as the percentage of inhibition of inflammation (paw volume) for each treatment group, considering both the arthritic and nonarthritic vehicle controls. The ANOVA test was used for statistical studies.
as §1

[5] = 1 mg/kg p.o. once daily for 7 days (days 14-20)

T1 sequence (P23219 24-599): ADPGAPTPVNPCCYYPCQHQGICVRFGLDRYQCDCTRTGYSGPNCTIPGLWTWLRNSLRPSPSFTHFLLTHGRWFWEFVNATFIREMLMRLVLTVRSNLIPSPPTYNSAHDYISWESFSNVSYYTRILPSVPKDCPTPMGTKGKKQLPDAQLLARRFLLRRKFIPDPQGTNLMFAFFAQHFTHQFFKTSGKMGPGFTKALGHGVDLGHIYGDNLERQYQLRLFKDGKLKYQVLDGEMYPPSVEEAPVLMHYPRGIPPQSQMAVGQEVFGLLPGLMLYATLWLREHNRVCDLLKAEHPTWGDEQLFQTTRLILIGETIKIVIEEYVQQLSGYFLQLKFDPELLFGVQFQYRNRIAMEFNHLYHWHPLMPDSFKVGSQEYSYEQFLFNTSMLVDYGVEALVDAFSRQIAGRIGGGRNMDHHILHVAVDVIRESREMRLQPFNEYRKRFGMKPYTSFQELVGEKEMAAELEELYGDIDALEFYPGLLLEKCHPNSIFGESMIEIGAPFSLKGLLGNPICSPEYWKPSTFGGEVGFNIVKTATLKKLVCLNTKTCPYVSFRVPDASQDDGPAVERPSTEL

Row | Structure (SMILES) | UD50 [1] [mg/kg] | IC50 [2] [µM] | IC50 [3] [µM] | Ratio COX-1:COX-2 [3] | % Inhibition (dose, mg/kg) ([4]; 3 mg/kg p.o. once daily for 7 days (days 14-20)) | % Inhibition (dose, mg/kg) [4, 5] | melting point [°C]
1 | CS(=O)(=O)c1ccc(-c2coc(=O)n2-c2ccc(F)cc2)cc1 [Compound 6, 3-(4-fluorophenyl)-4-(4-methylsulfonylphenyl)-2-(3H)-oxazolone] | >100 | 127 | 3.2 | 39.6 | 52 (3) % | – | –
2 | COc1ccc2c(c1)c(CC(=O)O)c(C)n2C(=O)c1ccc(Cl)cc1 [Indomethacin, 1-(4-chlorobenzoyl)-5-methoxy-2-methylindole-3-acetic acid, reference compound] | 17 | – | – | – | – | 64 (1) % | –
3 | CS(=O)(=O)c1ccc(-c2coc(=O)n2-c2ccc(Br)cc2)cc1 [Compound 9, 3-(4-bromophenyl)-4-(4-methylsulfonylphenyl)-2-(3H)-oxazolone] | – | > 100 | 0.11 | >909 | – | – | 217 to 219
4 | NS(=O)(=O)c1ccc(-c2coc(=O)n2-c2ccc(Cl)c(Cl)c2)cc1 [Compound 20, 3-(3,4-dichlorophenyl)-4-(4-aminosulphonylphenyl)-2-(3H)-oxazolone] | >100 | 3.5 | 0.06 | 58.3 | – | 67 (1) % | –
5 | NS(=O)(=O)c1ccc(-c2coc(=O)n2-c2ccc(F)cc2F)cc1 [Compound 27, 3-(2,4-difluorophenyl)-4-(4-aminosulphonylphenyl)-2-(3H)-oxazolone] | >100 | 8.9 | 0.1 | 89 | – | 64 (1) % | –
6 | NS(=O)(=O)c1ccc(-c2coc(=O)n2-c2ccccc2F)cc1 [Compound 26, 3-(2-fluorophenyl)-4-(4-aminosulphonylphenyl)-2-(3H)-oxazolone] | >100 | 22.6 | 0.0096 | 2354 | – | 65 (1) % | –
7 | NS(=O)(=O)c1ccc(-c2coc(=O)n2-c2ccc(F)cc2)cc1 [Compound 18, 3-(4-fluorophenyl)-4-(4-aminosulfonylphenyl)-2-(3H)-oxazolone] | – | 1.5 | 0.53 | 2.8 | – | 63 (1) % | –
